# Measurements from patent publication US8431715B2, “Thiazole compound (as PPARδ) ligand and pharmaceutical, cosmetic and health food comprised thereof” (Seoul National University Industry Foundation, priority 2007, dated 2013).
# Target: T1, PPARα (Homo sapiens, UniProt Q07869)
# T1 construct: Full length PPARs plasmid DNA, reporter DNA confirming PPARs activity owing to its luciferase activity; expressed in transfected cells; host or cells: CV-1 cells
# T1 sequence (Q07869 1-468): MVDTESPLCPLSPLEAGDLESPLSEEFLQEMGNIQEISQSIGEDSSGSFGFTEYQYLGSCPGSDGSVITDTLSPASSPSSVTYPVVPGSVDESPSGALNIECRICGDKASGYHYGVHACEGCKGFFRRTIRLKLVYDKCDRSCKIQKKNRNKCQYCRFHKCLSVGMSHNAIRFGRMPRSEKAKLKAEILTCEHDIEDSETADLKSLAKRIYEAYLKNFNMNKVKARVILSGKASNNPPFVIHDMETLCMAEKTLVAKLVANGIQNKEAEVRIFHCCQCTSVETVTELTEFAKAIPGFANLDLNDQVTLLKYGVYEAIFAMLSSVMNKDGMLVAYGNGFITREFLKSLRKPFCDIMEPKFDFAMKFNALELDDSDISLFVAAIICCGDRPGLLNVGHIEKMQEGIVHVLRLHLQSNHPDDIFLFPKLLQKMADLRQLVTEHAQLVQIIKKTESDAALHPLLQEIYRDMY
# Test: Transfection assay (luciferase reporter) in CV-1 cells, PPARα
# Assay type: cell-based
# Conditions: 24 hours treatment
# Experimental: The PPARδ activities of the R-form compound represented by formula 1 of the present invention and the S-form compound represented by formula 2 were measured by transfection assay. In addition, the selectivity to PPAR subtypes, PPARα and PPARγ, was examined. Cytotoxicity was tested by MTT assay and in vivo activity and toxicity was investigated by animal experiment using mice.
# CV-1 cells were used in this assay. The cells were inoculated in a 96-well plate containing DMEM supplemented with 10% FBS, DBS (delipidated) and 1% penicillin/streptomycin and cultured in a 37 °C, 5% CO2 incubator. The experiment was performed according to the steps of inoculation, transfection, sample treatment and confirmation. Particularly, CV-1 cells were inoculated in a 96 well-plate (5000 cells/well), followed by transfection 24 hours later. Full length PPARs plasmid DNA, reporter DNA confirming PPARs activity owing to its luciferase activity, β-galactosidase DNA providing information on transfection efficiency, and transfection reagent were used for the transfection. The compounds of formula 1 and formula 2 were dissolved in dimethylsulfoxide (DMSO), which were treated to the cells via media at different concentrations. […] Luciferase activity and β-galactosidaseactivity were measured with Luminometer and a microplate reader. […] A graph was made with those values and EC50 was calculated.
smiles,measurement,value
Cc1cc(S[C@H](Cc2ccccc2)c2sc(-c3ccc(C(F)(F)F)cc3)nc2C)ccc1OCC(=O)O (racemic) [formula 1],EC50 PPARα,ia
